# Data from ChEMBL document CHEMBL3301361, “Experimental in vitro DMPK and physicochemical data on a set of publicly disclosed compounds”.
# Tests used:
# [1] = physchem; settings: octan-1-ol/water
# [2] = in vitro; settings: human, plasma
# [3] = in vitro; settings: Beagle, dog, plasma
# [4] = in vitro; settings: human
# [5] = physchem
# [6] = in vitro; settings: mouse, plasma
# [7] = physchem; remark: listed apart in the source
# [8] = in vitro; settings: hepatocytes
# [9] = in vitro; settings: SD, HW or BN, rat, plasma
# [10] = in vitro; settings: human, hepatocytes
# [11] = physchem; settings: pH 7.4 buffer
SMILES,"logD ([1]; pH 7.4, LogD7.4)",fraction unbound at 5 h ([2]; PPB),fraction unbound at 5 h [3],pKa [5],fraction unbound at 5 h [6],pKa [7],fraction unbound at 5 h [9],further results
Cc1ccc2c(c1)c(S(=O)(=O)c1ccc(Cl)cc1)c(C)n2CC(=O)O,0.06,0.0052,0.0167,3.7,,,,microsomal CLint ([4]; liver microsomes): 7 µL/min/mg
CCCn1c(=O)c2[nH]c(-c3cnn(Cc4cccc(C(F)(F)F)c4)c3)nc2n(CC)c1=O [GS 6201],,,,,0.001,,,
CN1CCN(CC(=O)N2c3ccccc3C(=O)Nc3cccnc32)CC1 [PIRENZEPINE],-0.49,0.76,,10.7,,7.88,,microsomal CLint ([4]; liver microsomes): < 3 µL/min/mg; hepatocyte CLint [8]: 6.76 µL/min/1e6 cells
O=c1c2cc(-c3ccc(Cl)cc3)oc2ccn1-c1ccc2c(cnn2CCN2CCCC2)c1,,,,,0.0043,,,
COc1cc(-n2nnc3cc(-c4ccc(Cl)cc4)sc3c2=O)ccc1N1CC[C@@H](O)C1,3.15,,,,0.0021,,,
CCC(CC)NC(=O)c1c(C)nn(-c2ccccc2)c1NS(=O)(=O)c1ccc(C)cc1,1.35,0.0049,0.0418,4.2,,,0.03,microsomal CLint ([4]; liver microsomes): 23.6 µL/min/mg; hepatocyte CLint [8]: 13.5 µL/min/1e6 cells; hepatocyte CLint [10]: < 3 µL/min/1e6 cells
Cc1nn(C)c(C)c1-c1ccc(-c2nc3ccncc3c(O)c2C#N)cc1,,,,,0.0343,,,
CCS(=O)(=O)c1ccc(-c2cc(Cl)ccc2OCC(=O)O)c(Cl)c1,-0.43,0.0268,0.0082,3.4,,,,microsomal CLint ([4]; liver microsomes): < 3 µL/min/mg
Cc1cc(CN(CC(=O)Nc2ccc(Cl)cc2Cl)C2CCCCC2)ccc1OCC(=O)O,,,,2.9,,6.7,,solubility thermodynamic [11]: 813 µM; microsomal CLint ([4]; microsomes): 101 µL/min/mg; hepatocyte CLint [8]: 43.4 µL/min/1e6 cells
Nc1cc(-c2cc(C(F)(F)F)ccc2Oc2cc(F)c(S(=O)(=O)Nc3ncns3)cc2Cl)ccn1,,,,3.18,,6.4,0.0035,
CC[C@H](Nc1ncnc2[nH]cnc12)c1nc2cccc(F)c2c(=O)n1-c1ccccc1 [IDELALISIB],2.72,,,,0.19,,,
Cc1ccc2c(c1)c(-c1ccnc3cc(Cl)ccc13)c(C)n2CC(=O)O,1.59,0.0018,0.0035,5,,2.6,,microsomal CLint ([4]; liver microsomes): 4 µL/min/mg
COc1ccc(COc2nc(Br)cnc2NS(=O)(=O)c2ccc(C)cc2)cc1OCCN(C)C,1.68,0.0033,,5.05,,8.8,,solubility thermodynamic [11]: 77.6 µM; microsomal CLint ([4]; liver microsomes): 7 µL/min/mg; hepatocyte CLint [8]: 31 µL/min/1e6 cells
Cc1cc(CN2Cc3ccccc3C[C@H]2C(=O)Nc2ccc(Cl)cc2Cl)ccc1OCC(=O)O,2.41,,,3.1,,6.2,,solubility thermodynamic [11]: 347 µM; microsomal CLint ([4]; microsomes): 11 µL/min/mg; hepatocyte CLint [8]: 31 µL/min/1e6 cells
COCCOc1nc(N)c2[nH]c(=O)n(Cc3ccccc3)c2n1,2.26,0.105,,9.5,,2.4,0.376,microsomal CLint ([4]; liver microsomes): < 3 µL/min/mg
CCCSc1ccc2nc(NC(=O)OC)[nH]c2c1 [ALBENDAZOLE],,,,10.5,,5.88,0.0581,logD ([1]; pH 7.4): 3.24; solubility thermodynamic [11]: 1.6 µM; fraction unbound at 5 h [2]: 0.0457; microsomal CLint ([4]; microsomes): 34.7 µL/min/mg; hepatocyte CLint [8]: 83.2 µL/min/1e6 cells
N#Cc1ccc(NC(=O)Nc2ccccc2Br)c2nn[nH]c12,1.64,0.0042,0.0049,6.2,,,,microsomal CLint ([4]; microsomes): 23 µL/min/mg; hepatocyte CLint [8]: 69 µL/min/1e6 cells
Cc1nn(C2CCOCC2)c(NS(=O)(=O)c2ccc(C3CC3)cc2)c1C(=O)N[C@@H](C)C(C)(C)C,1.23,0.0736,0.107,5,,,0.11,

SMILES,"logD ([1]; pH 7.4, LogD7.4)",fraction unbound at 5 h ([2]; PPB),fraction unbound at 5 h [3],pKa [5],fraction unbound at 5 h [6],pKa [7],fraction unbound at 5 h [9],further results
O=C(O)COc1cccc(N2CCC(CN3CCC(Oc4ccc(Cl)c(Cl)c4)CC3)CC2)c1,,,,3.7,,9.3,,microsomal CLint ([4]; liver microsomes): 12 µL/min/mg; hepatocyte CLint [8]: < 3 µL/min/1e6 cells
O=S(=O)(Nc1ncns1)c1cc(F)c(Oc2ccc(Cl)cc2-c2ccnn2C2CNC2)cc1F,,0.02,0.0437,3.19,,10.1,0.0532,
N#Cc1c(-c2ccc(-c3ccccc3OC(F)(F)F)cc2)nc2ccncc2c1O,3.45,,,,0.0013,,,solubility thermodynamic [11]: 3.3 µM
Cc1cc(CN2Cc3ccccc3C2C(=O)Nc2ccc(Cl)cc2Cl)ccc1OCC(=O)O (stereo not given),2.62,0.0013,,3.1,,5.6,0.0014,solubility thermodynamic [11]: 479 µM
CC(C)[C@@H]1CC[C@@H](C)C[C@@H]1P(=O)(c1ccccc1)c1ccccc1,,,,,0.0039,,,
Fc1ccc(-c2cc(C3CCN(Cc4ccn(-c5ccc(C(F)(F)F)cc5)c4)CC3)no2)cc1,,,,,0.0005,,,
CC(C)Oc1ccc(-c2nc(-c3cccc4c(CCC(=O)O)c[nH]c34)no2)cc1Cl,,,,,0.0005,,,
CCC#Cc1cncc(-c2ccc3c(c2)C2(N=C(C)C(N)=N2)[C@]2(CC[C@H](OC)CC2)C3)c1 (stereo not given in full),,,,,0.02,,,
Nc1scc2c(C(=O)NC3CC3)nn(-c3ccc(F)cc3)c(=O)c12,2.8,,,,0.11,,,
CCN(CC)CCNC(=O)c1ccc(NS(C)(=O)=O)cc1 [SEMATILIDE],,0.849,0.899,7.52,,9.35,0.899,
C[C@@H](CC(=O)OC(C)(C)C)NC(=O)C1=NOC(C(O)(C(F)(F)F)C(F)(F)F)C1 (stereo not given in full),,,,,0.201,,,
OC1(c2ccc(Cl)cc2)CCN(Cc2c[nH]c3ccccc23)CC1,,,,,0.0872,,,logD ([1]; pH 7.4): 2.25; solubility thermodynamic [11]: 562 µM
CN(C)S(=O)(=O)NC(=O)CCCc1c(-c2ccc(F)cc2)[nH]c2ccc(C#N)cc12,,0.0041,0.0196,5.5,,,0.0042,solubility thermodynamic [11]: 4.8 µM; microsomal CLint ([4]; microsomes): 8.86 µL/min/mg; hepatocyte CLint [8]: < 3 µL/min/1e6 cells
COc1ccc(-c2cc(C(F)F)nn2-c2ccc(S(N)(=O)=O)cc2)cc1F [DERACOXIB],2.8,,,,0.0268,,,
Nc1[nH]ncc1-c1cc(Cl)ccc1Oc1cc(F)c(S(=O)(=O)Nc2cscn2)cc1Cl [PF-05089771],,0.0024,0.0048,6.2,,,0.0055,hepatocyte CLint [10]: 5.62 µL/min/1e6 cells
C[C@H]1CN(Cc2cc(Cl)ccc2OCC(=O)O)CCN1C(=O)Cc1ccccc1,,,0.0784,2.5,,7,0.11,logD ([1]; pH 7.4): 0.18; fraction unbound at 5 h [2]: 0.0262; microsomal CLint ([4]; microsomes): < 3 µL/min/mg
Nc1nc(O)c(Cl)c(-c2ccccc2)n1,,,,7.45,,2.35,0.0661,fraction unbound at 5 h [2]: 0.0477
O=C(Nc1ccc(Cl)c(S(=O)(=O)N2CCNCC2)c1O)Nc1cccc(F)c1Cl [ELUBRIXIN],2.6,0.0029,0.0127,5.9,,8.5,0.0106,solubility thermodynamic [11]: 457 µM; hepatocyte CLint [8]: 41.4 µL/min/1e6 cells; hepatocyte CLint [10]: < 3 µL/min/1e6 cells
